Tests used:
[1] = tested on: U-2 OS; test: relative cell count vs DMSO (cell painting) (fraction of DMSO control); higher = more cells remaining (less cytotoxic); details: 24 h
Experimental: (§1)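 Cell painting in U-2 OS cells (384-well, about 1,500 cells per well), compound exposure 24 h, usually six 2-fold concentrations from 20 to 0.625 uM (some compounds higher or lower). Relative cell count is the cell number per well relative to DMSO wells. Activity score is the Mahalanobis distance of the morphological profile from DMSO control wells. Mean of four technical replicate plates.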

[2] = tested on: U-2 OS; test: AUC of culture confluence over time (live-cell imaging) (AUC (confluence % x time)); higher = more confluent culture (less growth inhibition)
Experimental: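 Live-cell Incucyte imaging of U-2 OS cells in F-12K medium. Compounds were tested mostly at 5, 10 and 20 uM, and cells were imaged every 4 h for up to 60 h. Value is the area under the curve of phase-contrast confluence over time.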

[3] = tested on: U-2 OS; test: cell painting activity score (Mahalanobis distance from DMSO wells); higher = stronger morphological phenotype; details: 24 h
Experimental: as §1

| Compound | relative cell count ([1]; 0.625 µM) | relative cell count ([1]; 1.25 µM) | relative cell count ([1]; 2.5 µM) | relative cell count ([1]; 5 µM) | relative cell count ([1]; 10 µM) | relative cell count ([1]; 20 µM) | AUC of culture confluence over time ([2]; 5 µM) | AUC of culture confluence over time ([2]; 10 µM) | AUC of culture confluence over time ([2]; 20 µM) | cell painting activity score ([3]; 0.625 µM) | cell painting activity score ([3]; 1.25 µM) | cell painting activity score ([3]; 2.5 µM) | cell painting activity score ([3]; 5 µM) | cell painting activity score ([3]; 10 µM) | cell painting activity score ([3]; 20 µM) |
| --- | --- | --- | --- | --- | --- | --- | --- | --- | --- | --- | --- | --- | --- | --- | --- |
| O=NN(CCCl)C(=O)NCCCl | 1.01 | 0.934 | 0.932 | 0.946 | 0.929 | 0.856 | 44.8 | 47.8 | 42.3 | 4.49 | 4.2 | 5.44 | 4.8 | 6.45 | 8.52 |
| COc1cc([C@@H]2c3cc4c(cc3[C@H](O)[C@H]3COC(=O)[C@H]23)OCO4)cc(OC)c1OC | 0.209 | 0.195 | 0.195 | 0.199 | 0.187 | 0.179 | 15.2 | 15.6 | 20.8 | 23.6 | 24.1 | 23.9 | 21 | 21 | 22 |
| CC(C)(N=NC(C)(C)C(=N)N)C(=N)N.Cl.Cl | 1.01 | 0.966 | 0.949 | 1.01 | 0.975 | 0.977 | 49.5 | 48.3 | 46.6 | 5.15 | 4.98 | 5.89 | 7.2 | 8.42 | 9.74 |
| O=C(O)C1=CC(=C(c2ccc(O)c(C(=O)O)c2)c2ccc(O)c(C(=O)O)c2)C=CC1=O | 0.992 | 0.98 | 0.986 | 0.968 | 0.965 | 0.954 | 54.3 | 48.2 | 54 | 3.58 | 3.35 | 3.92 | 4.33 | 5.68 | 5.78 |
| CC(C)(C)C(=O)OCOc1cccc2c1C(=O)C1C3C=CC(CC3)C1C2=O (stereo not given) | 0.973 | 0.963 | 0.986 | 0.929 | 0.787 | 0.554 | 37.6 | 26.3 | 20 | 5.7 | 6.22 | 7.75 | 8.44 | 12.8 | 13.5 |
| CC(C)C[C@H](NC(=O)[C@H](CCc1ccccc1)NC(=O)CN1CCOCC1)C(=O)N[C@@H](Cc1ccccc1)C(=O)N[C@@H](CC(C)C)C(=O)[C@@]1(C)CO1 | 0.149 | 0.136 | 0.125 | 0.141 | 0.143 | 0.149 | 18.4 | 17.5 | 16.1 | 30.8 | 31.9 | 32.5 | 31.5 | 28.8 | 29.7 |
| Oc1ccc2ccccc2c1SSc1c(O)ccc2ccccc12 | 0.996 | 0.924 | 0.926 | 0.901 | 0.812 | 0.245 | 44.4 | 37.5 | 18 | 5.34 | 4.94 | 7.79 | 8.22 | 9.14 | 14 |
| CNC(=O)c1cc(Oc2ccc(NC(=O)Nc3ccc(Cl)c(C(F)(F)F)c3)cc2)ccn1 | 1.02 | 0.956 | 0.971 | 0.978 | 0.705 | 0.348 | 50.1 | 29.6 | 15.6 | 10.7 | 11.4 | 10.3 | 12.4 | 9.94 | 10.5 |
| CS(=O)(=O)OCCCCOS(C)(=O)=O | 0.959 | 0.863 | 0.85 | 0.682 | 0.679 | 0.295 | 49.5 | 47.2 | 49.5 | 3.32 | 4.51 | 5.59 | 7.16 | 6.02 | 10 |

Source: the supplement of paper PMC10011410
